Experimental findings from PubChem BioAssay (NCI) are described below.

What all share (assay): NCI tumour cell line growth inhibition, 48 h
Assay [1] deals with 786-0 renal.
Assay [2] relates to HCC-2998 colon.
Assay [3] relates to MCF7 breast.
In assay [4] the test system is NCI/ADR-RES ovarian.
Assay [5] deals with SK-MEL-2 melanoma.
For assay [6], the system named is SK-OV-3 ovarian.
For assay [7], the system named is U251 CNS.
Assay [8] has as its system UO-31 renal.
Assay [9] deals with CAKI-1 renal.
Assay [10] relates to SF-539 CNS.

The structures appear in SMILES notation.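 A five-concentration, 48-hour dose response in 96-well plates underlies each endpoint, interpolated linearly between surrounding concentrations. TGI is the concentration that stops growth completely.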

With `Fc1cccc2nc(-c3ccccc3)cc(OCc3ccccc3)c12`, the TGI in assay [1], in assay [2], in [3], in assay [4], in assay [5] and in assay [6] was greater than 100 µM in each case. Besides, the TGI in assay [7] and in [8] was greater than 100 µM in each case.
As for `Cc1nc2c(Br)cc(Br)cc2c(=O)n1-c1ccccc1N`, the TGI is greater than 100 µM in assay [1]; 96.2 µM in assay [9]; greater than 100 µM in assay [2]; greater than 100 µM in [3]; greater than 100 µM in assay [4]; greater than 100 µM in assay [10]. In addition, the TGI was 58.1 µM in assay [5], greater than 100 µM in assay [6] and 83.8 µM in assay [8].
For `CC1(C)CCOC(=O)C(Cl)CC1Cl` (configuration not stated), the TGI in assay [1], in assay [9], in [2], in assay [3], in assay [4] and in assay [10] was greater than 100 µM throughout. Also, the TGI in assay [5], in [6] and in [7] was greater than 100 µM throughout.
With `O=S1(=O)c2ccccc2N2CCCc3cc(Cl)cc1c32`, the TGI in assay [1], in [9], in [2], in [3], in [4] and in assay [10] was greater than 100 µM in each case. Besides, the TGI in assay [5], in [6] and in assay [8] was greater than 100 µM in each case.
As to `O=C(O)C(Cc1cccs1)C(=O)O`, the TGI in assay [1], in assay [9], in assay [2], in assay [3], in assay [4] and in assay [5] was greater than 100 µM in each case. Besides, the TGI in assay [6], in assay [7] and in [8] was greater than 100 µM throughout.
Consider `Cc1nc2ccccc2n1CCc1nc2ccccc2s1`, for which the TGI in assay [1], in assay [9], in [2], in assay [3], in assay [4] and in assay [10] was greater than 100 µM throughout. In addition, the TGI in [5], in [6] and in [7] was greater than 100 µM in each case.
`CC1CC[C@]2(C(=O)O)CCC3(C)C(=C2[C@H]1C)C=CC1[C@@]2(C)CC[C@H](O)C(C)(C)C2CC[C@]13C` (some centres not stated): the TGI in assay [1] was greater than 100 µM; in assay [9], 84.1 µM; in [2], 73.8 µM; in [3] it was greater than 100 µM; in assay [4], greater than 100 µM; in assay [10], 50.9 µM. Further, the TGI was greater than 100 µM in [5], 45.5 µM in assay [6] and 97.7 µM in assay [7].
As to `COc1ccc2nc3c([N+](=O)[O-])ccc4c3c(c2c1)NCCN4C`, the TGI was 3.37 µM in assay [1]; 9.13 µM in assay [9]; 4.63 µM in [2]; 8.75 µM in assay [3]; 7.73 µM in assay [4]; 2.62 µM in assay [10]. The TGI in [6] amounted to 9.23 µM; in assay [7] it was 13.4 µM; in assay [8], 2.82 µM.
Regarding `CC[C@H]1C=CCC[C@@]2(C[C@@H]3CC[C@@H]4[C@H](C(=O)OCCCCCCCCCCCCCCCC(=O)N(CCCN)C[C@@H](O)CCN)[C@]5(CCC[C@@H](C)O5)NC(=[N+]34)N2)O1`, the TGI in assay [1] is 1.04 µM; in assay [2], 0.793 µM; in assay [3], 1.71 µM; in [4], greater than 10 µM; in [10], 2.37 µM; in [5], 0.673 µM. Also, the TGI in assay [6] turned out to be 4.77 µM; in assay [7], 1.68 µM; in assay [8], 1.64 µM.
Turning to `CN(C)Cc1cc(C(=O)O)cc(CN(C)C)c1O`, the TGI in [1], in assay [9], in assay [2], in assay [3], in [4] and in [5] was greater than 100 µM throughout. The TGI in [6], in assay [7] and in [8] was greater than 100 µM throughout.
Consider `Clc1ccc(OCc2nnc(CCCCCCCCc3nnc(COc4ccc(Cl)cc4Cl)o3)o2)c(Cl)c1`, for which the TGI in assay [1] was greater than 100 µM; in [9], 53.4 µM; in assay [2] it was greater than 100 µM; in [3], greater than 100 µM; in [4], greater than 100 µM; in assay [5], greater than 100 µM. For the same molecule, the TGI in assay [6], in [7] and in assay [8] was greater than 100 µM each time.
Take `COc1ccc(CNc2nc3ccccc3nc2-c2cccs2)cc1`: the TGI is greater than 100 µM in [1]; 46.3 µM in assay [9]; greater than 100 µM in [2]; greater than 100 µM in assay [3]; greater than 100 µM in assay [4]; greater than 100 µM in [10]. Further, the results for the TGI in assay [6], in assay [7] and in assay [8] were greater than 100 µM, greater than 100 µM and 71.1 µM, respectively.
